Here are results for nine compounds from patent US6043242A, “Imidazopyridazines” (Byk Gulden Lomberg Chemische Fabrik GmbH, priority 1996, dated 2000).

SMILES strings stand for the structures. In brackets after ≈: the same amount, converted by molar mass. Counter-ions that a name gives are not always drawn.

For one experiment, the system named is Helicobacter pylori. The experiment can be described thus: activity against Helicobacter pylori (MIC50), Columbia agar, growth period of 4 days. In kind it is cell-based. The note with it: 96 h, approx. MIC 50 values, Columbia agar (Oxoid). From the text:
The compounds of the formula I were investigated with respect to their activity against Helicobacter pylori following the methodology described by Tomoyuki Iwahi et al. (Antimicrobial Agents and Chemotherapy, 1991, 490-496) using Columbia agar (Oxoid) and with a growth period of 4 days. The approx. MIC 50 values listed in Table A below resulted here for the compounds investigated (the stated numbers of the compounds agree with the example numbers in the description).

In another experiment the test system is Helicobacter fells. The experiment can be described thus: in vivo activity against Helicobacter fells in the mouse (elimination rate). Conditions: po, 96 h, administered orally at 3×50 mg/kg over the course of 4 days. As for the experimental part:
With respect to their in vivo activity against Helicobacter fells in the mouse, the compounds of the formula I were investigated following the methodology described by E. Dick-Hegedus and A. Lee (Scand. J. Gastroenterol. 1991, 26, 909-915). The substances were administered orally at 3×50 mg/kg over the course of 4 days. The elimination rates listed in Table A below resulted here for the compounds investigated: […]

As to `Cc1c(SCCCSc2ccc3ncc([N+](=O)[O-])n3n2)ccnc1CO` [Compound 1, {3-Methyl-4-[3-(3-nitroimidazo[1,2-b]pyridazin-6-ylsulfanyl)propylsulfanyl]pyridin-2-yl}methanol], the MIC50 – broadly, the lowest concentration that inhibits either 50% of growth or 50% of the strains tested, depending on the study – in the experiment on Helicobacter pylori was determined as 0.05 µg/mL (≈ 0.128 µM). The compound also returned a responders at 50 mg/kg with Helicobacter fells of 100%.
For `Cc1c(SCCCSc2ccc3ncc([N+](=O)[O-])n3n2)ccnc1CSc1ncccn1` [Compound 4, 6-{3-[3-Methyl-2-(pyrimidin-2-ylsulfanylmethyl)-pyridin-4-ylsulfanyl]propyisulfanyl)3-nitro-imidazo[1,2-b]pyridazine] the same measures were 0.1 µg/mL (≈ 0.206 µM) and 100%.
In the experiment with Helicobacter pylori, `COCCOCCSCc1nccc(SCCCSc2ccc3ncc([N+](=O)[O-])n3n2)c1C` [Compound 9, 6-(3-}2-[2-(2-Methoxyethoxy)ethylsulfanylmethyl]-3-methylpyridin-4-ylsulfanyl}-propylsulfanyl)-3-nitroimidazo[1,2-b]pyridazine fumarate] registered an MIC50 of 0.1 µg/mL. In the experiment with Helicobacter fells, this compound yielded a responders at 50 mg/kg of 100%.
For `Cc1c(OCCCOc2ccc3ncc([N+](=O)[O-])n3n2)cc[n+]([O-])c1C` [Compound 13, 6-[3-(2,3-Dimethyl-1-oxypyridin-4-yloxy)propoxy]-3-nitroimidazo[1,2-b]pyridazine] the same measures were 0.5 µg/mL (≈ 1.39 µM) and 100%.
For the compound `Cc1c(OCCCSc2ccc3ncc([N+](=O)[O-])n3n2)ccnc1CO` [Compound 15, {3-Methyl-4-[3-(3-nitroimidazo[1,2-b]pyridazin-6-ylsulfanyl)propoxy]pyridin-2-yl}-methanol], the MIC50 in the experiment on Helicobacter pylori was found to be 0.05 µg/mL (≈ 0.133 µM). The responders at 50 mg/kg in the experiment with Helicobacter fells worked out at 100%.
With `CN(CCSc1ccc2ncc([N+](=O)[O-])n2n1)c1ccnc(CSc2nc3ccccc3[nH]2)c1Cl` [Compound 17], the MIC50 against Helicobacter pylori stood at 0.1 µg/mL (≈ 0.19 µM). The responders at 50 mg/kg in the experiment on Helicobacter fells worked out at 100%.
For `CN(CCSc1ccc2ncc([N+](=O)[O-])n2n1)c1ccnc(CSc2ncccn2)c1Cl` [Compound 18] the same measures were 0.1 µg/mL (≈ 0.205 µM) and 100%.
For `Cc1ccnc(SCc2nccc(SCCCSc3ccc4ncc([N+](=O)[O-])n4n3)c2C)n1` [Compound 25, 6-{3-[3-Methyl-2-(4-methyl-pyrimidin-2-ylsulfanylmethyl)-pyridin-4-ylsulfanyl]-propylsulfanyl}-3-nitroimidazo[1,2-b]pyridazine] the same measures were 0.05 µg/mL (≈ 0.1 µM) and 100%.
With `CN(CCOc1ccc2ncc([N+](=O)[O-])n2n1)c1ccnc(CSc2nc3ccccc3[nH]2)c1Cl.Cl` [Compound 27, [2-(1H-benzimidazol-2-ylsulfanylmethyl)-3-chloropyridin-4-yl]-methyl-[2-(3-nitroimidazo[1,2-b]pyridazin-6-yloxy)-ethyl]amine hydrochloride], the MIC50 in the experiment on Helicobacter pylori amounted to 0.1 µg/mL. This compound came in with a responders at 50 mg/kg with Helicobacter fells of 100%.
